Reference: publication PMC4744035, “In Vivo, In Vitro, and In Silico Characterization of Peptoids as Antimicrobial Agents” (PLoS ONE, 2016)
Values after ≈ are worked out from the molar mass of the structure shown. Numbered stars: 1 amine (or outer) side, 2 acyl side, 3 side chain; on linkers, the order of the positions; unused ones are H or OH. Square brackets hold non-standard residues; d marks the D form. Peptide text beside a SMILES is read from it. X1 = CC(C)[C@H](C)N(CC(=O)[*:2])[*:1]; Nspe = C[C@H](NCC(=O)O)c1ccccc1; Nlys = NCCCCNCC(=O)O

Experiments:
[1] = test system: erythrocytes; assay: Hemolytic activity (HD10/HD50); format: cell-based
Source text: Table 1 Characteristics of antimicrobial peptoids, screened for activity against B. subtilis and E. coli bacterial strains. | column: HD10 / HD50

[2] = test system: E. coli ATCC 35218; format: cell-based
Procedure, shortened: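 MICs determined by 2:1 serial broth microdilution in cation-adjusted Mueller-Hinton broth per CLSI M7-A6, using inoculum at 1 x 10^6 CFU/mL mixed 1:1 with peptoid solution. Three independent replicates, each with two parallel trials.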

[3] = test system: NIH 3T3 cells; assay: Metabolic activity, MTS assay; format: cell-based, mouse
Method: NIH 3T3 mouse fibroblast cells were cultured in complete Dulbecco’s Modified Eagle’s Media. A peptoid solution plate (100 µL per well) was prepared by serial dilution of aqueous peptoid stock solutions in Hank’s balanced salt solution. A day-old cell monolayer was washed thoroughly with Hank’s balanced salt solution and replenished with 100 µL Hank’s balanced salt solution per well. Peptoid solutions were transferred onto the day-old cell monolayers, which contained approximately 5000 cells per well. […] The average of six replicate trials is reported.

[4] = test system: E. faecium T62764 (VRE); assay: microbe, parasite or virus in culture; settings: T62764 (VRE)
Procedure, shortened: (§1)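 Agents were diluted serially at 10x in acetic acid/BSA, added to Mueller Hinton medium, then inoculated with bacteria at 2–7 x 10^5 CFU/mL. Plates were incubated overnight at 37°C and scored for growth.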

[5] = test system: P. maltophilia ATCC13637; assay: microbe, parasite or virus in culture; settings: ATCC13637
Procedure, shortened: as §1

[6] = test system: E. faecium mic80 (VRE); assay: microbe, parasite or virus in culture; settings: mic80 (VRE)
Procedure, shortened: as §1

[7] = test system: E. coli 63103 (ESBL); assay: microbe, parasite or virus in culture; settings: 63103 (ESBL)
Procedure, shortened: as §1

[8] = test system: P. aeruginosa 198 (MDR); assay: microbe, parasite or virus in culture; settings: 198 (MDR)
Procedure, shortened: as §1

[9] = test system: P. aeruginosa H103 (wild type); assay: microbe, parasite or virus in culture; settings: H103 (wild type)
Procedure, shortened: as §1

[10] = test system: E. coli 64771 (ESBL); assay: microbe, parasite or virus in culture; settings: 64771 (ESBL)
Procedure, shortened: as §1

[11] = test system: E. cloacae 218R Class C β-lactamase; assay: microbe, parasite or virus in culture; settings: 218R Class C β-lactamase
Procedure, shortened: as §1

[12] = test system: P. aeruginosa 213 (MDR); assay: microbe, parasite or virus in culture; settings: 213 (MDR)
Procedure, shortened: as §1

[13] = test system: P. aeruginosa LES400 (MDR); assay: microbe, parasite or virus in culture; settings: LES400 (MDR)
Procedure, shortened: as §1

[14] = test system: E. faecalis W61950 (VRE); assay: microbe, parasite or virus in culture; settings: W61950 (VRE)
Procedure, shortened: as §1

[15] = test system: K. pneumonia 61962 (ESBL); assay: microbe, parasite or virus in culture
Procedure, shortened: as §1

[16] = test system: P. aeruginosa H1027 (MDR); assay: microbe, parasite or virus in culture; settings: H1027 (MDR)
Procedure, shortened: as §1

[17] = test system: K. pneumonia 63575 (ESBL); assay: microbe, parasite or virus in culture
Procedure, shortened: as §1

[18] = test system: S. aureus C623 (MRSA); assay: microbe, parasite or virus in culture; settings: C623
Procedure, shortened: as §1

[19] = test system: P. aeruginosa H1030 (MDR); assay: microbe, parasite or virus in culture; settings: P. aeruginosa H1030 (MDR)
Procedure, shortened: as §1

[20] = test system: P. aeruginosa 9 (MDR); assay: microbe, parasite or virus in culture; settings: 9 (MDR)
Procedure, shortened: as §1

[21] = test system: E. faecalis ATCC29212; assay: microbe, parasite or virus in culture; settings: ATCC29212
Procedure, shortened: as §1

[22] = test system: S. aureus ATCC25923; assay: microbe, parasite or virus in culture; settings: ATCC25923
Procedure, shortened: as §1

[23] = test system: E. faecalis F43559 (VRE); assay: microbe, parasite or virus in culture; settings: F43559 (VRE)
Procedure, shortened: as §1

Row | Compound | HD10 (hemolytic activity) [1] | HD50 (hemolytic activity) [1] | MIC E. coli [2] | ID50 (inhibitory dose, metabolic activity) [3] | MIC [4] | MIC [5] | MIC [6] | MIC [7] | MIC [8] | MIC [9] | MIC [10] | MIC [11] | MIC [12] | MIC [13] | MIC [14] | MIC [15] | MIC [16] | MIC [17] | MIC [18] | MIC [19] | also measured
1 | C[C@@H](c1ccccc1)N(CC(N)=O)C(=O)CN(CCCCN)C(=O)CN(CCCCN)C(=O)CN(C(=O)CN(C(=O)CN(CCCCN)C(=O)CN(C(=O)CN(CCCCN)C(=O)CN(CCCCN)C(=O)CN(C(=O)CN(C(=O)CNCCCCN)[C@@H](C)c1ccccc1)[C@@H](C)c1ccccc1)[C@@H](C)c1ccccc1)[C@@H](C)c1ccccc1)[C@@H](C)c1ccccc1 [1-NLys5,11, H-(NLys-Nspe-Nspe-NLys-NLys-Nspe)2-NH2] (H-[Nlys][Nspe][Nspe][Nlys][Nlys][Nspe][Nlys][Nspe][Nspe][Nlys][Nlys][Nspe]-NH2) | >100 / >100 | >100 / >100 | 50 µM (≈ 87.7 µg/mL) | 85 µM | 8 µg/mL (≈ 4.56 µM) | 0.5 µg/mL (≈ 0.285 µM) | 16 µg/mL (≈ 9.13 µM) | 128 µg/mL (≈ 73 µM) | 8 µg/mL (≈ 4.56 µM) | 2 µg/mL (≈ 1.14 µM) | 32 µg/mL (≈ 18.3 µM) | 32 µg/mL (≈ 18.3 µM) | 8 µg/mL (≈ 4.56 µM) | 8 µg/mL (≈ 4.56 µM) | 256 µg/mL (≈ 146 µM) | 256 µg/mL (≈ 146 µM) | 0.13 µg/mL (≈ 0.0741 µM) | 128 µg/mL (≈ 73 µM) | 64 µg/mL (≈ 36.5 µM) | 64 µg/mL (≈ 36.5 µM) | MIC [20]: 64 µg/mL (≈ 36.5 µM); MIC [21]: 256 µg/mL (≈ 146 µM); MIC [22]: 64 µg/mL (≈ 36.5 µM); MIC [23]: 256 µg/mL (≈ 146 µM)
2 | CC(C)[C@H](C)N(CC(=O)N(CCCCN)CC(=O)N(CC(=O)N(CC(=O)N(CCCCN)CC(=O)N(CC(=O)N(CC(=O)N(CCCCN)CC(=O)N(CC(=O)N(CC(N)=O)[C@@H](C)c1ccccc1)[C@@H](C)c1ccccc1)[C@@H](C)C(C)C)[C@@H](C)C(C)C)[C@@H](C)c1ccccc1)[C@@H](C)c1ccccc1)C(=O)CN(C(=O)CNCCCCN)[C@@H](C)C(C)C [1-Nsdp2,3,8,9, H-(NLys-Nsdp-Nsdp-NLys-Nspe-Nspe)2-NH2] (H-[Nlys][X1][X1][Nlys][Nspe][Nspe][Nlys][X1][X1][Nlys][Nspe][Nspe]-NH2) | 77 | > 200 | 12.5 µM (≈ 21 µg/mL) | 19 µM | 1 µg/mL (≈ 0.594 µM) | 1 µg/mL (≈ 0.594 µM) | 4 µg/mL (≈ 2.38 µM) | 16 µg/mL (≈ 9.51 µM) | 32 µg/mL (≈ 19 µM) | 8 µg/mL (≈ 4.75 µM) | 8 µg/mL (≈ 4.75 µM) | 8 µg/mL (≈ 4.75 µM) | 8 µg/mL (≈ 4.75 µM) | 8 µg/mL (≈ 4.75 µM) | 16 µg/mL (≈ 9.51 µM) | 32 µg/mL (≈ 19 µM) | 2 µg/mL (≈ 1.19 µM) | 32 µg/mL (≈ 19 µM) | 4 µg/mL (≈ 2.38 µM) | 8 µg/mL (≈ 4.75 µM) | MIC [20]: 256 µg/mL (≈ 152 µM); MIC [21]: 4 µg/mL (≈ 2.38 µM); MIC [22]: 4 µg/mL (≈ 2.38 µM); MIC [23]: 16 µg/mL (≈ 9.51 µM)
3 | C[C@@H](c1ccccc1)N(CC(N)=O)C(=O)CN(C(=O)CN(CCCCN)C(=O)CN(C(=O)CN(C(=O)CN(CCCCN)C(=O)[C@@H]1CCCN1C(=O)CN(C(=O)CN(CCCCN)C(=O)CN(C(=O)CN(C(=O)CNCCCCN)[C@@H](C)c1ccccc1)[C@@H](C)c1ccccc1)[C@@H](C)c1ccccc1)[C@@H](C)c1ccccc1)[C@@H](C)c1ccccc1)[C@@H](C)c1ccccc1 [Peptoid 1-Pro6, H-NLys-Nspe2-NLys-Nspe-L-Pro-(NLys-Nspe2)2-NH2] (H-[Nlys][Nspe][Nspe][Nlys][Nspe]P[Nlys][Nspe][Nspe][Nlys][Nspe][Nspe]-NH2) | 83 | > 200 | 12.5 µM (≈ 21.9 µg/mL) | 18 µM | 1 µg/mL (≈ 0.57 µM) | 2 µg/mL (≈ 1.14 µM) | 8 µg/mL (≈ 4.56 µM) | 16 µg/mL (≈ 9.12 µM) | 16 µg/mL (≈ 9.12 µM) | 8 µg/mL (≈ 4.56 µM) | 8 µg/mL (≈ 4.56 µM) | 16 µg/mL (≈ 9.12 µM) | 16 µg/mL (≈ 9.12 µM) | 8 µg/mL (≈ 4.56 µM) | 32 µg/mL (≈ 18.2 µM) | 64 µg/mL (≈ 36.5 µM) | 4 µg/mL (≈ 2.28 µM) | 32 µg/mL (≈ 18.2 µM) | 8 µg/mL (≈ 4.56 µM) | 16 µg/mL (≈ 9.12 µM) | MIC [20]: 256 µg/mL (≈ 146 µM); MIC [21]: 8 µg/mL (≈ 4.56 µM); MIC [22]: 4 µg/mL (≈ 2.28 µM); MIC [23]: 8 µg/mL (≈ 4.56 µM)
4 | C[C@@H](c1ccccc1)N(CC(N)=O)C(=O)CN(Cc1ccccc1)C(=O)CN(CCCCN)C(=O)CN(Cc1ccccc1)C(=O)CN(Cc1ccccc1)C(=O)CN(CCCCN)C(=O)CN(Cc1ccccc1)C(=O)CN(Cc1ccccc1)C(=O)CN(CCCCN)C(=O)CN(Cc1ccccc1)C(=O)CN(Cc1ccccc1)C(=O)CNCCCCN [Peptoid 1ach-Nspe12, H-(NLys-Npm-Npm)3-(NLys-Npm-Nspe)-NH2] | 164 | > 200 | 6.3 µM (≈ 10.8 µg/mL) | 15 µM | 1 µg/mL (≈ 0.581 µM) | 1 µg/mL (≈ 0.581 µM) | 4 µg/mL (≈ 2.32 µM) | 16 µg/mL (≈ 9.3 µM) | 8 µg/mL (≈ 4.65 µM) | 4 µg/mL (≈ 2.32 µM) | 4 µg/mL (≈ 2.32 µM) | 16 µg/mL (≈ 9.3 µM) | 4 µg/mL (≈ 2.32 µM) | 4 µg/mL (≈ 2.32 µM) | 16 µg/mL (≈ 9.3 µM) | 128 µg/mL (≈ 74.4 µM) | 1 µg/mL (≈ 0.581 µM) | 32 µg/mL (≈ 18.6 µM) | 8 µg/mL (≈ 4.65 µM) | 32 µg/mL (≈ 18.6 µM) | MIC [20]: 64 µg/mL (≈ 37.2 µM); MIC [21]: 8 µg/mL (≈ 4.65 µM); MIC [22]: 4 µg/mL (≈ 2.32 µM); MIC [23]: 16 µg/mL (≈ 9.3 µM)
